The results in this text go back to patent US7951827B2, “Synthesis and antiprotozoal activity of dicationic 3,5-diphenylisoxazoles” (The University of North Carolina at Chapel Hill, priority 2005, dated 2011).

Structures can show the parent of a compound that is named as a salt. Where two headings read alike, the source gives them in different places.

Data set [1] deals with Plasmodium falciparum. Nature of the data set: In vitro antiprotozoal activity against Plasmodium falciparum. The data set is classed as cell-based. As to the method:
(§1) In vitro antiprotozoal activities, see Ismail, M. A., et al., J. Med. Chem. 46, 4761-4769 (2003), and cytotoxicity were measured following established protocols, see Balz, T., et al., EMBO J., 4, 1273-1277 (1985); Räz. B., et al., Acta Trop., 68:139-147 (1997); and Sperandeo, N. R. et al., Chem. Biochem., 4, 69-73 (2003). […] Other positive controls employed were melarsoprol (against T. brucei), chloroquine, and artemisinin (against P. falciparum), and podophyllotoxin (against VERO cells).

Data set [2] deals with Trypanosoma brucei brucei. Nature of the data set: In vitro antiprotozoal activity against Trypanosoma brucei brucei. The data set is classed as cell-based. Here is the method:
as §1

Data set [3] can be described thus: Cytotoxicity to VERO cells. The data set is classed as cell-based, African green monkey (Cercopithecus Aethiops). To be noted: African green monkey (Cercopithecus aethiops). Here is the method:
as §1

The subject of data set [4] is VERO cells. Nature of the data set: Cytotoxicity to VERO cells. The data set is classed as cell-based, African green monkey (Cercopithecus Aethiops). Here is the method:
as §1

[5] abbreviates: Plasmodium falciparum, Table 1, read-out: IC50 (μM) Plasmodium falciparum.
Where [6] appears, read: Trypanosoma brucei, Table 1, read-out: IC50 (μM) Trypanosoma brucei brucei.
Where [7] appears, read: IC50 (μM) Cytotoxicity VERO cells.
[8] abbreviates: Trypanosoma brucei, read-out: IC50 values against T. brucei brucei.
[9] abbreviates: Plasmodium falciparum, read-out: antiplasmodial IC50 values (P. falciparum).

For `N=C(N)c1ccc(-c2cc(-c3ccccc3)on2)cc1` (as salt: hydrochloride) [Compound 2, 3-(4-Amidinophenyl)-5-phenylisoxazole], the melting point lay in the range of 287 to 292 °C.
Turning to `C[C@@H]1CC[C@H]2[C@@H](C)C(=O)O[C@@H]3O[C@@]4(C)CC[C@@H]1[C@]32OO4` [Artemisinin, reference compound], the IC50 in data set [1] (setting [5]) is 0.0067 µM.
Regarding `CCN(CC)CCCC(C)Nc1ccnc2cc(Cl)ccc12` (stereo not drawn) [Chloroquine, reference compound], the IC50 in data set [1] (Plasmodium falciparum, read-out: IC50 (μM) Plasmodium falciparum) was determined as 0.104 µM.
As to `Cl.N=C(N)c1ccc(-c2cc(-c3ccccc3)no2)cc1` [Compound 1, 5-(4-Amidinophenyl)-3-phenylisoxazole hydrochloride], the melting point is 262 to 265 °C. Moreover, in data set [2] (setting [6]), the IC50 turned out to be 1.72 µM. Also, the IC50 in data set [1] (setting [5]) came to 3.3 µM. This molecule also showed an IC50 in data set [3] (setting [7]) of 19.1 µM.
Turning to `N=C(N)c1ccc(-c2cc(-c3ccccc3)on2)cc1` [Compound 2, 3-(4-Amidinophenyl)-5-phenylisoxazole], the IC50 in data set [2] (setting [6]) turned out to be 1.12 µM; in data set [1] (setting [5]), 3.3 µM; in data set [3] (setting [7]) it was 18.5 µM.
As to `N=C(N)c1ccc(-c2cc(-c3ccc(C(=N)N)cc3)on2)cc1` [Compound 3, 3,5-Bis(4-amidinophenyl)isoxazole dihydrochloride], the IC50 in data set [2] (setting [6]) was 0.0051 µM; in data set [2] (setting [8]), 0.0035 to 0.009 µM; in data set [2] (dihydrochloride, read-out: IC50 values against T. brucei brucei), 0.0051 µM; in data set [1] (setting [5]) it was 0.0226 µM; in data set [3] (setting [7]) it was 2.13 µM.
Take `c1cc(-c2cc(-c3ccc(C4=NCCN4)cc3)on2)ccc1C1=NCCN1` [Compound 5, 3,5-Bis[4-(2-imidazolinyl)phenyl]isoxazole dihydrochloride]: the IC50 is 0.0872 µM in data set [2] (Table 1, read-out: IC50 (μM) Trypanosoma brucei brucei); 0.0041 µM in data set [1] (Table 1, read-out: IC50 (μM) Plasmodium falciparum); 1.81 µM in data set [4].
Take `Cl.Cl.N=C(N)c1ccc(-c2cc(-c3ccc(C(=N)N)cc3[N+](=O)[O-])on2)cc1` [Compound 6, 5-(4-Amidino-2-nitrophenyl)-3-(4-amidinophenyl)isoxazole dihydrochloride]: the melting point is > 350 °C (dec.). The IC50 in data set [2] (setting [6]) is 0.0139 µM. The IC50 in data set [1] (setting [5]) worked out at 0.0149 µM. Also, the IC50 in data set [1] (setting [9]) is 0.008 to 0.03 µM. This molecule also yielded an IC50 in data set [3] (setting [7]) of 15.8 µM.
On to `Cl.Cl.N=C(N)c1ccc(-c2cc(-c3ccc(C(=N)N)cc3Cl)on2)cc1` [Compound 7, 5-(4-Amidino-2-chlorophenyl)-3-(4-amidinophenyl)isoxazole dihydrochloride], for which the melting point was > 350 °C (dec.). In data set [2] (setting [6]), the IC50 was 0.0155 µM. The IC50 in data set [1] (setting [5]) was found to be 0.0079 µM. Also, the IC50 in data set [1] (setting [9]) is less than 0.008 µM. In addition, the IC50 in data set [3] (setting [7]) turned out to be 41 µM.
Regarding `Cl.Cl.N=C(N)c1ccc(-c2cc(-c3ccc(C(=N)N)cc3[N+](=O)[O-])no2)cc1` [Compound 9, 3-(4-Amidino-2-nitrophenyl)-5-(4-amidinophenyl)isoxazole dihydrochloride], the melting point was 350 °C (dec.). The IC50 in data set [2] (setting [6]) is 0.0324 µM. Moreover, the IC50 in data set [1] (setting [5]) turned out to be 0.0401 µM. For the same molecule, the IC50 in data set [3] (setting [7]) was 22.2 µM.
As for `N=C(N)c1ccc(-c2cc(-c3ccc(C(=N)N)cc3Cl)no2)cc1` [Compound 10, 3-(4-Amidino-2-chlorophenyl)-5-(4-amidinophenyl)isoxazole dihydrochloride], the IC50 in data set [2] (setting [6]) stood at 0.0232 µM; in data set [1] (setting [5]), 0.0555 µM; in data set [3] (setting [7]) it was 5.69 µM.
Take `N=C(N)c1ccc(-c2cc(-c3cccc(C(=N)N)c3)no2)cc1` [Compound 13, 3-(3-Amidinophenyl)-5-(4-amidinophenyl)isoxazole dihydrochloride]: the IC50 in data set [2] (setting [6]) was 0.0063 µM; in data set [2] (setting [8]) it was 0.0035 to 0.009 µM; in data set [1] (setting [5]), 0.0578 µM; in data set [1] (setting [9]) it was 0.0578 µM; in data set [3] (setting [7]), 24.1 µM.
`Cl.Cl.N=C(N)c1cccc(-c2cc(-c3ccc(C(=N)N)cc3[N+](=O)[O-])on2)c1` [Compound 16, 5-(4-Amidino-2-nitrophenyl)-3-(3-amidinophenyl)isoxazole dihydrochloride] came in with a melting point of 225 °C. The IC50 in data set [2] (setting [6]) was determined as 0.009 µM. Moreover, the IC50 in data set [2] (setting [8]) fell in the range of 0.0035 to 0.009 µM. Moreover, the IC50 in data set [1] (setting [5]) was 0.0259 µM. In addition, the IC50 in data set [1] (setting [9]) is 0.008 to 0.03 µM. The same molecule showed an IC50 in data set [3] (setting [7]) of 48 µM.
Take `Cl.Cl.N=C(N)c1cccc(-c2cc(-c3ccc(C(=N)N)cc3Cl)on2)c1` [Compound 17, 5-(4-Amidino-2-chlorophenyl)-3-(3-amidinophenyl)isoxazole dihydrochloride]: the melting point was 242 to 245 °C. Further, the IC50 in data set [2] (setting [6]) amounted to 0.0063 µM. Also, in data set [2] (setting [8]), the IC50 is 0.0035 to 0.009 µM. In addition, in data set [1] (setting [5]), the IC50 amounted to 0.0187 µM. Besides, in data set [1] (setting [9]), the IC50 was 0.008 to 0.03 µM. The IC50 in data set [3] (setting [7]) turned out to be 82.7 µM.
The molecule `Cl.Cl.N=C(N)c1ccc(-c2cc(-c3cc(C(=N)N)ccc3Cl)no2)cc1` [Compound 20, 3-(5-Amidino-2-chlorophenyl)-5-(4-amidinophenyl)isoxazole dihydrochloride] showed a melting point of 348 °C. In data set [2] (setting [6]), the IC50 is 0.0212 µM. Also, the IC50 in data set [1] (setting [5]) turned out to be 0.0071 µM. The IC50 in data set [1] (setting [9]) was less than 0.008 µM. In data set [3] (setting [7]), the IC50 was determined as 5.67 µM.
`Cl.Cl.N=C(N)c1ccc(-c2cc(-c3cccc(C(=N)N)c3)on2)cc1` [Compound 22, 3-(4-Amidinophenyl)-5-(3-amidinophenyl)isoxazole di hydrochloride]: the melting point lay within 336 to 338 °C. The IC50 in data set [2] (setting [6]) is 0.0035 µM. Also, the IC50 in data set [2] (setting [8]) lay within 0.0035 to 0.009 µM. Further, the IC50 in data set [1] (setting [5]) was found to be 0.0025 µM. This molecule also registered an IC50 in data set [3] (setting [7]) of 31.2 µM.
For `Cl.Cl.N=C(N)c1ccc(-c2cc(-c3cc(C(=N)N)ccc3Cl)on2)cc1` [Compound 25, 5-(5-Amidino-2-chlorophenyl)-3-(4-amidinophenyl)isoxazole dihydrochloride], the melting point is 356 to 358 °C (dec.). In addition, in data set [2] (setting [6]), the IC50 stood at 0.0209 µM. Moreover, in data set [1] (setting [5]), the IC50 was 0.0035 µM. The IC50 in data set [1] (setting [9]) is less than 0.008 µM. Further, the IC50 in data set [3] (setting [7]) worked out at 71.4 µM.
`COc1ccc(C(=N)N)cc1-c1cc(-c2ccc(C(=N)N)cc2)no1.Cl.Cl` [Compound 26, 5-(5-Amidino-2-methoxyphenyl)-3-(4-amidinophenyl)isoxazole dihydrochloride] gave a melting point of 240 to 242 °C. Moreover, in data set [2] (setting [6]), the IC50 is 0.0043 µM. For the same molecule, in data set [2] (setting [8]), the IC50 is 0.0035 to 0.009 µM. Moreover, the IC50 in data set [1] (setting [5]) came to 0.0116 µM. The IC50 in data set [1] (setting [9]) lay within 0.008 to 0.03 µM. In data set [3] (setting [7]), this molecule showed an IC50 of 52.8 µM.
Take `Cl.Cl.N=C(N)c1cccc(-c2cc(-c3ccc(C(=N)N)cc3Cl)no2)c1` [Compound 28, 3-(4-Amidino-2-chlorophenyl)-5-(3-amidinophenyl)isoxazole dihydrochloride]: the melting point is 210 °C (dec.). The IC50 in data set [2] (setting [6]) stood at 0.0116 µM. Besides, the IC50 in data set [1] (setting [5]) worked out at 0.0141 µM. Moreover, the IC50 in data set [1] (setting [9]) was in the range of 0.008 to 0.03 µM. The IC50 in data set [3] (setting [7]) was 87.4 µM.
Regarding `Cl.Cl.N=C(N)c1cccc(-c2cc(-c3cc(C(=N)N)ccc3[N+](=O)[O-])on2)c1` [Compound 35, 5-(5-Amidino-2-nitrophenyl)-3-(3-amidinophenyl)isoxazole dihydrochloride], the melting point was 222 °C (dec.). The IC50 in data set [2] (setting [6]) amounted to 1.63 µM. In addition, the IC50 in data set [1] (setting [5]) was found to be 0.334 µM. In data set [3] (setting [7]), this molecule came in with an IC50 of 9.8 µM.
Take `N=C(N)c1cccc(-c2cc(-c3cc(C(=N)N)ccc3Cl)no2)c1` [Compound 39, 3-(5-Amidino-2-chlorophenyl)-5-(3-amidinophenyl)isoxazole dihydrochloride]: the IC50 was found to be 0.0463 µM in data set [2] (setting [6]), 0.0306 µM in data set [1] (setting [5]) and 55.5 µM in data set [3] (setting [7]).
Turning to `COc1ccc(C(=N)N)cc1-c1cc(-c2cccc(C(=N)N)c2)on1.Cl.Cl` [Compound 40, 3-(5-Amidino-2-methoxyphenyl)-5-(3-amidinophenyl)isoxazole dihydrochloride], the melting point was 210 °C (dec.). Besides, in data set [2] (setting [6]), the IC50 came out at 0.027 µM. Besides, the IC50 in data set [1] (setting [5]) came out at 0.0174 µM. For the same molecule, in data set [1] (setting [9]), the IC50 was in the range of 0.008 to 0.03 µM. Half-maximal inhibition in data set [3] (setting [7]) (IC50) required 215 µM.
Consider `COc1ccc(C(=N)N)cc1-c1cc(-c2cc(C(=N)N)ccc2OC)on1.Cl.Cl` [Compound 41, 3,5-Bis(5-amidino-2-methoxyphenyl)isoxazole dihydrochloride], for which the melting point is 240 °C (dec.). Also, the IC50 in data set [2] (setting [6]) was found to be 0.0042 µM. The IC50 in data set [2] (setting [8]) lay in the range of 0.0035 to 0.009 µM. The IC50 in data set [1] (setting [5]) is 0.0211 µM. Also, the IC50 in data set [1] (setting [9]) was 0.008 to 0.03 µM. The IC50 in data set [3] (setting [7]) was 79.9 µM.
With `COc1ccc(C(=N)NC(C)C)cc1-c1cc(-c2cc(C(=N)NC(C)C)ccc2OC)on1.Cl.Cl` [Compound 42, 3,5-Bis[5-(N-isopropyl)amidino-2-methoxyphenyl]isoxazole dihydrochloride], the melting point is 185 °C (dec.). In addition, in data set [2] (setting [6]), the IC50 was determined as 0.374 µM. Further, in data set [1] (setting [5]), the IC50 was 0.0932 µM. Also, it took 21.7 µM to reach half-maximal inhibition in data set [3] (setting [7]) (IC50).
`Nc1nc(N)nc(Nc2ccc([As]3SCC(CO)S3)cc2)n1` (stereo not drawn) [Melarsoprol, reference compound]: in data set [2] (Trypanosoma brucei, read-out: IC50 (μM) Trypanosoma brucei brucei), the IC50 was determined as 0.00637 µM.
In the case of `COc1cc([C@@H]2c3cc4c(cc3[C@H](O)[C@H]3COC(=O)[C@H]23)OCO4)cc(OC)c1OC` [Podophyllotoxin, reference compound], in data set [3] (Table 1, read-out: IC50 (μM) Cytotoxicity VERO cells), the IC50 amounted to 0.0186 µM.

Broadly, the melting point is the temperature, or range, at which the solid turns liquid. The IC50 is the point on the concentration scale where inhibition reaches its midpoint.
